Data published in patent US8754068B2, “Modified C-3 betulinic acid derivatives as HIV maturation inhibitors” (priority 2010, dated 2014).

Tested on: recombinant NL4-3 virus (Renilla luciferase in nef, Gag P373S)
Test: HIV cell culture assay (luciferase reporter virus in MT-2 cells)
Assay type: cell-based
Conditions: NL43
Protocol: HIV cell culture assay—MT-2 cells and 293T cells were obtained from the NIH AIDS Research and Reference Reagent Program. MT-2 cells were propagated in RPMI 1640 media supplemented with 10% heat inactivated fetal bovine serum, […]. The 293T cells were propagated in DMEM media supplemented with 10% heat inactivated fetal bovine serum (FBS), 100 units/ml penicillin G and 100 μg/ml streptomycin. The proviral DNA clone of NL4-3 was obtained from the NIH AIDS Research and Reference Reagent Program. A recombinant NL4-3 virus, in which a section of the nef gene from NL4-3 was replaced with the Renilla luciferase gene, was used as a reference virus. In addition, residue Gag P373 was converted to P373S. Briefly, the recombinant virus was prepared by transfection of the altered proviral clone of NL4-3. Transfections were performed in 293T cells using LipofectAMINE PLUS from Invitrogen (Carlsbad, Calif.), according to manufacturer's instruction. The virus was titered in MT-2 cells using luciferase enzyme activity as a marker. Luciferase was quantitated using the Dual Luciferase kit from Promega (Madison, Wis.), with modifications to the manufacturer's protocol. The diluted Passive Lysis solution was pre-mixed with the re-suspended Luciferase Assay Reagent and the re-suspended Stop & Glo Substrate (2:1:1 ratio). Fifty (50) μL of the mixture was added to each aspirated well on assay plates and luciferase activity was measured immediately on a Wallac TriLux (Perkin-Elmer). Antiviral activities of inhibitors toward the recombinant virus were quantified by measuring luciferase activity in cells infected for 4-5 days with NLRluc recombinants in the presence serial dilutions of the inhibitor. Table 1 is the key for the data in Table 2.

Compound	EC50
C=C(C)[C@@H]1CC[C@]2(CO)CC[C@]3(C)[C@H](CC[C@@H]4[C@@]5(C)CC=C(c6ccc(C(=O)O)cn6)C(C)(C)[C@@H]5CC[C@]43C)[C@@H]12 [Example 5u, 6-((1R,3aS,5aR,5bR,7aR,11aS,11bR,13aR,13bR)-3a-(hydroxymethyl)-5a,5b,8,8,11a-pentamethyl-1-(prop-1-en-2-yl)-2,3,3a,4,5,5a,5b,6,7,7a,8,11,11a,11b,12,13,13a,13b-octadecahydro-1H-cyclopenta[a]chrysen-9-yl)nicotinic acid]	< 1 µM
C=C(C)[C@@H]1CC[C@]2(C(=O)O)CC[C@]3(C)[C@H](CC[C@@H]4[C@@]5(C)CC=C(c6ccc(C(=O)O)s6)C(C)(C)[C@@H]5CC[C@]43C)[C@@H]12 [Example 4n, 5-((1R,3aS,5aR,5bR,7aR,11aS,11bR,13aR,13bR)-3a-carboxy-5a,5b,8,8,11a-pentamethyl-1-(prop-1-en-2-yl)-2,3,3a,4,5,5a,5b,6,7,7a,8,11,11a,11b,12,13,13a,13b-octadecahydro-1H-cyclopenta[a]chrysen-9-yl)thiophene-2-carboxylic acid]	< 1 µM
C=C(C)[C@@H]1CC[C@]2(CO)CC[C@]3(C)[C@H](CC[C@@H]4[C@@]5(C)CC=C(c6ccc(C(=O)O)c(C(=O)O)c6)C(C)(C)[C@@H]5CC[C@]43C)[C@@H]12 [Example 5t, 4-((1R,3aS,5aR,5bR,7aR,11aS,11bR,13aR,13bR)-3a-(hydroxymethyl)-5a,5b,8,8,11a-pentamethyl-1-(prop-1-en-2-yl)-2,3,3a,4,5,5a,5b,6,7,7a,8,11,11a,11b,12,13,13a,13b-octadecahydro-1H-cyclopenta[a]chrysen-9-yl)phthalic acid]	< 1 µM
CC(C)[C@@H]1CC[C@]2(C(=O)O)CC[C@]3(C)[C@H](CC[C@@H]4[C@@]5(C)CC[C@H](c6ccc(C(=O)O)cc6)C(C)(C)[C@@H]5CC[C@]43C)[C@@H]12 [Example 3b, (1S,3aS,5aR,5bR,7aS,9S,11aS,11bR,13aR,13bR)-9-(4-carboxyphenyl)-1-isopropyl-5a,5b,8,8,11a-pentamethylicosahydro-1H-cyclopenta[a]chrysene-3a-carboxylic acid]	< 1 µM
C=C(C)[C@@H]1CC[C@]2(C(=O)O)CC[C@]3(C)[C@H](CC[C@@H]4[C@@]5(C)CC=C(c6ccc(/C=C/C(=O)O)cc6)C(C)(C)[C@@H]5CC[C@]43C)[C@@H]12 [Example 4h, (1R,3aS,5aR,5bR,7aR,11aS,11bR,13aR,13bR)-9-(4-((E)-2-carboxyvinyl)phenyl)-5a,5b,8,8,11a-pentamethyl-1-(prop-1-en-2-yl)-2,3,3a,4,5,5a,5b,6,7,7a,8,11,11a,11b,12,13,13a,13b-octadecahydro-1H-cyclopenta[a]chrysene-3a-carboxylic acid]	< 1 µM
C=C(C)[C@@H]1CC[C@]2(C(=O)O)CC[C@]3(C)[C@H](CC[C@@H]4[C@@]5(C)CC=C(c6ccc(-c7cnc8ccccc8c7C(=O)O)cc6)C(C)(C)[C@@H]5CC[C@]43C)[C@@H]12 [Example 4m, 3-(4-((1R,3aS,5aR,5bR,7aR,11aS,11bR,13aR,13bR)-3a-carboxy-5a,5b,8,8,11a-pentamethyl-1-(prop-1-en-2-yl)-2,3,3a,4,5,5a,5b,6,7,7a,8,11,11a,11b,12,13,13a,13b-octadecahydro-1H-cyclopenta[a]chrysen-9-yl)phenyl)quinoline-4-carboxylic acid]	> 1 µM
C=C(C)[C@@H]1CC[C@]2(CO)CC[C@]3(C)[C@H](CC[C@@H]4[C@@]5(C)CC=C(c6ccc(C(=O)O)cc6F)C(C)(C)[C@@H]5CC[C@]43C)[C@@H]12 [Example 5k, 3-fluoro-4-((1R,3aS,5aR,5bR,7aR,11aS,11bR,13aR,13bR)-3a-(hydroxymethyl)-5a,5b,8,8,11a-pentamethyl-1-(prop-1-en-2-yl)-2,3,3a,4,5,5a,5b,6,7,7a,8,11,11a,11b,12,13,13a,13b-octadecahydro-1H-cyclopenta[a]chrysen-9-yl)benzoic acid]	< 1 µM
C=C(C)[C@@H]1CC[C@]2(C(=O)O)CC[C@]3(C)[C@H](CC[C@@H]4[C@@]5(C)CC=C(c6ccc(C(=O)O)c(Cl)c6)C(C)(C)[C@@H]5CC[C@]43C)[C@@H]12 [Example 4o, (1R,3aS,5aR,5bR,7aR,11aS,11bR,13aR,13bR)-9-(4-carboxy-3-chlorophenyl)-5a,5b,8,8,11a-pentamethyl-1-(prop-1-en-2-yl)-2,3,3a,4,5,5a,5b,6,7,7a,8,11,11a,11b,12,13,13a,13b-octadecahydro-1H-cyclopenta[a]chrysene-3a-carboxylic acid]	< 1 µM
C=C(C)[C@@H]1CC[C@]2(CO)CC[C@]3(C)[C@H](CC[C@@H]4[C@@]5(C)CC=C(c6cnc(C(=O)O)nc6)C(C)(C)[C@@H]5CC[C@]43C)[C@@H]12 [Example 5q, 5-((1R,3aS,5aR,5bR,7aR,11aS,11bR,13aR,13bR)-3a-(hydroxymethyl)-5a,5b,8,8,11a-pentamethyl-1-(prop-1-en-2-yl)-2,3,3a,4,5,5a,5b,6,7,7a,8,11,11a,11b,12,13,13a,13b-octadecahydro-1H-cyclopenta[a]chrysen-9-yl)pyrimidine-2-carboxylic acid]	> 1 µM
C=C(C)[C@@H]1CC[C@]2(C(=O)O)CC[C@]3(C)[C@H](CC[C@@H]4[C@@]5(C)CC=C(c6ccc(C(=O)NS(C)(=O)=O)cc6)C(C)(C)[C@@H]5CC[C@]43C)[C@@H]12 [Example 6b, (1R,3aS,5aR,5bR,7aR,11aS,13aR,13bR)-5a,5b,8,8,11a-pentamethyl-9-(4-(methylsulfonylcarbamoyl)phenyl)-1-(prop-1-en-2-yl)-2,3,3a,4,5,5a,5b,6,7,7a,8,11,11a,11b,12,13,13a,13b-octadecahydro-1H-cyclopenta[a]chrysene-3a-carboxylic acid]	< 1 µM
C=C(C)[C@@H]1CC[C@]2(CO)CC[C@]3(C)[C@H](CC[C@@H]4[C@@]5(C)CC=C(c6ccc(S(N)(=O)=O)cc6)C(C)(C)[C@@H]5CC[C@]43C)[C@@H]12 [Example 5j, 4-((1R,3aS,5aR,5bR,7aR,11aS,11bR,13aR,13bR)-3a-(hydroxymethyl)-5a,5b,8,8,11a-pentamethyl-1-(prop-1-en-2-yl)-2,3,3a,4,5,5a,5b,6,7,7a,8,11,11a,11b,12,13,13a,13b-octadecahydro-1H-cyclopenta[a]chrysen-9-yl)benzenesulfonamide]	< 1 µM
C=C(C)[C@@H]1CC[C@]2(C(=O)O)CC[C@]3(C)[C@H](CC[C@@H]4[C@@]5(C)CC=C(c6cccc(S(=O)(=O)NC)c6)C(C)(C)[C@@H]5CC[C@]43C)[C@@H]12 [Example 4e, (1R,3aS,5aR,5bR,7aR,11aS,11bR,13aR,13bR)-5a,5b,8,8,11a-pentamethyl-9-(3-(N-methylsulfamoyl)phenyl)-1-(prop-1-en-2-yl)-2,3,3a,4,5,5a,5b,6,7,7a,8,11,11a,11b,12,13,13a,13b-octadecahydro-1H-cyclopenta[a]chrysene-3a-carboxylic acid]	< 1 µM
C=C(C)[C@@H]1CC[C@]2(C(=O)O)CC[C@]3(C)[C@H](CC[C@@H]4[C@@]5(C)CC=C(c6cccc(-c7nn[nH]n7)c6)C(C)(C)[C@@H]5CC[C@]43C)[C@@H]12 [Example 4i, (1R,3aS,5aR,5bR,7aR,11aS,11bR,13aR,13bR)-9-(3-(2H-tetrazol-5-yl)phenyl)-5a,5b,8,8,11a-pentamethyl-1-(prop-1-en-2-yl)-2,3,3a,4,5,5a,5b,6,7,7a,8,11,11a,11b,12,13,13a,13b-octadecahydro-1H-cyclopenta[a]chrysene-3a-carboxylic acid]	> 1 µM
C=C(C)[C@@H]1CC[C@]2(CO)CC[C@]3(C)[C@H](CC[C@@H]4[C@@]5(C)CC=C(c6ccc(O)c(F)c6)C(C)(C)[C@@H]5CC[C@]43C)[C@@H]12 [Example 5f, 2-fluoro-4-((1R,3aS,5aR,5bR,7aR,11aS,11bR,13aR,13bR)-3a-(hydroxymethyl)-5a,5b,8,8,11a-pentamethyl-1-(prop-1-en-2-yl)-2,3,3a,4,5,5a,5b,6,7,7a,8,11,11a,11b,12,13,13a,13b-octadecahydro-1H-cyclopenta[a]chrysen-9-yl)phenol]	< 1 µM
C=C(C)[C@@H]1CC[C@]2(C(=O)O)CC[C@]3(C)[C@H](CC[C@@H]4[C@@]5(C)CC=C(c6ccc(C(=O)OC)cc6)C(C)(C)[C@@H]5CC[C@]43C)[C@@H]12 [Example 7, (1R,3aS,5aR,5bR,7aR,11aS,11bR,13aR,13bR)-9-(4-(methoxycarbonyl)phenyl)-5a,5b,8,8,11a-pentamethyl-1-(prop-1-en-2-yl)-2,3,3a,4,5,5a,5b,6,7,7a,8,11,11a,11b,12,13,13a,13b-octadecahydro-1H-cyclopenta[a]chrysene-3a-carboxylic acid]	> 1 µM
